Assay results: patent US5877187A, “Benzimidazole derivatives with antihistaminic activity” (Fabrica Espanola de Productos Quimicos y Farmaceuticos S.A. …, priority 1996, dated 1999)

Tests used:
ECG / QTc interval = assay: ECG and QTc interval in rats after i.v. administration; type: in vivo, rat; conditions: 20 mg/kg i.v.
[1] = system: spontaneous motor activity; assay: Spontaneous motor activity of the rat; type: in vivo; conditions: 100 mg/kg p.o.
[2] = system: acetylcholine-induced contractions in isolated guinea pig ileum; assay: Antagonism of acetylcholine-induced contractions in isolated guinea pig ileum; type: cell-based; design: dose or concentration left out as unconfirmed
[3] = target: T1, guinea pig ileum H1 -receptor histamine (Cavia porcellus, UniProt P31389); assay: Blocking of histamine-induced contractions in the isolated guinea pig ileum; type: cell-based; conditions: calculated, mixed antagonist
T1 construct: isolated guinea pig ileum; from tissue; host or cells: isolated guinea pig ileum
T1 sequence (P31389 whole entry): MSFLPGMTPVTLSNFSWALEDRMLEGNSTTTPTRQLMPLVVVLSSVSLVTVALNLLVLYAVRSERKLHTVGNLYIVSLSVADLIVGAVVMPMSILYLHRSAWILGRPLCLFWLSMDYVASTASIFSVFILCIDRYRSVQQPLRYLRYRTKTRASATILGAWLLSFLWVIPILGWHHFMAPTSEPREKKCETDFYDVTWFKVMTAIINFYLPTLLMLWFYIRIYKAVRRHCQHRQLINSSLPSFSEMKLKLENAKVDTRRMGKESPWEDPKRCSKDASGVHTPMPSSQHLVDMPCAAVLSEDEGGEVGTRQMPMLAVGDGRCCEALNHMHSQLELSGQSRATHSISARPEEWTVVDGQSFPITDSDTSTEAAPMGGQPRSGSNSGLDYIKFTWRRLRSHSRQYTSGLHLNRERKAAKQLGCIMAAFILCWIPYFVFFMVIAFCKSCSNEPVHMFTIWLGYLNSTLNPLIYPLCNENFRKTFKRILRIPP
Text: (§1) Compounds of formula I have useful pharmacological properties. In particular, they are potent H1 antihistamines.

[4] = system: histamine-induced cutaneous capillary permeability; assay: Inhibition of the increment of histamine-induced cutaneous capillary permeability in rats; type: in vivo, rat
Text: as §1

CCOCCn1c(C2CCN(CCc3ccc(C(C)(C)C(=O)O)cc3)CC2)nc2ccccc21 [Ib (R1 =Et), 2-[4-(2-(4-(1-(2-ethoxyethyl)benzimidazole-2-yl)piperidine-1-yl)ethyl)phenyl]-2-methylpropanoic Acid]
increase of the QTc interval (ECG / QTc interval): nor does it increase the QTc interval
morphological ECG disturbance (ECG / QTc interval): induces no morphological ECG disturbance
effect on spontaneous motor activity [1]: does not modify
antagonism of acetylcholine-induced contractions [2]: not able to antagonize significantly
pD2' [3]: 6.50
Kb ([3]; read-out: pA2 (converted)): 7.94 to 10.5 nM
duration of significant activity in excess of 50% ([4]; 5 mg/kg p.o.): at least 6 hours
inhibition at 5 mg/kg ([4]; Rattus norvegicus, po, 5 mg/kg p.o., maintained for at least 6 hours, read-out: activity (inhibition of the increase in capillary permeability)): > 50%
ED50 ([4]; Rattus norvegicus, po, read-out: DE50, inhibition of the increase in capillary permeability): ~2 mg/kg
